According to patent publication US11034666B2, “Anti-inflammatory and antitumor 2-oxothiazoles and 2-oxothiophenes compounds” (Avexxin AS, priority 2013, dated 2021):

How the values were obtained:
[1] = system: PGE2; experiment: Plasma PGE2 EIA, prophylactic CIA study; type: in vivo, male DBA/1 mice
Description: PGE2 is recognized as an important contributor to the joint inflammation in rheumatoid arthritis,^60 and we investigated if plasma PGE2 levels were changed in response to treatment. […] There were no significant differences between the treatment groups (p>0.05).
(§1) PGE2 EIA analysis of blood plasma from the prophylactic and therapeutic CIA studies was performed according to kit protocol. Plasma samples were diluted 1:1000-1:6000 in EIA buffer and allowed to hybridize over-night (18 hrs, 4° C.). The plate was read using a Multiscan plate reader (Ascent Labsystems) (OD550 nm). The corresponding Ascent software for Multiscan, Version 2.4.1 was used to obtain the data. PGE2 levels for all treatments are shown relative to the DMSO-treated vehicle arthritic mice (n=10-11 mice in each category±SD).
(§2) For the prophylactic and the therapeutic studies, CIA was induced in male DBA/1 mice (except naïve mice) by immunization with 0.1 mL emulsion containing an equal volume of bovine type II collagen solution (2 mg/mL) and Freuds Complete Adjuvant at the tail base. The first injection was given on Day 0 and the second injection as booster was given on Day 21 (41-43). COMPOUND A, vehicle (DMSO) and MTX (0.3 mg/kg) were administered daily, Enbrel (25 mg/kg) was administrated twice a week. For the prophylactic study, treatment started one hour before the second collagen injection and continued for 21 days except for the histology groups that were sacrificed at Day 13 ([…]). For the therapeutic study, treatment started at Day 28 and continued for 14 days.

[2] = system: PGE2; experiment: Plasma PGE2 EIA, therapeutic CIA study; type: in vivo, male DBA/1 mice
Description: There were no significant differences between the treatment groups (p>0.05).
as §1, §2

[3] = system: MAS98.12 xenograft; experiment: Patient-derived basal-like breast cancer xenograft, long-term treatment; type: in vivo, mouse
Description: As described more fully below, we conducted a study in a patient-derived xenograft model of basal-like breast cancer, which is responsive to […], is highly vascularised and has a high expression of cPLA2. The mice received 30 mg Compound A/kg bw by ip. injection daily for a 7 days, then every second day for 14 more days. A group of control mice received DMSO only. Tumor volumes were measured throughout the study period.
Mouse model: MAS98.12. This model is established from a primary breast carcinoma at the Institute for Cancer Research, OUS [10]. The MR Cancer Group has previously characterised this model both with respect to metabolic profile, vascularisation, response to antiangiogenic treatment and response to PI3K inhibition. Treatment was initiated when the xenograft tumors had reached a volume of 83±51 mm3 (tumor volume=d1×d2×[…]). The majority of mice had bilateral tumors.
Mice received 30 mg/kg bw COMPOUND A in 50 μl DMSO, through intraperitoneal injection. Control groups received volume-matched, drug-free DMSO injections. Tumor volume measured with electronic callipers from day −3 until the end of the experiment (Day 19).
Arm 2: Long-term treatment One group (n=6, 11 tumors) treated with COMPOUND A daily for 7 days, then every 2nd day for the remainder of the study. Controls (n=6, 10 tumors) treated with drug-free DMSO according to the same protocol. […] Throughout the study, the tumor volume was measured every 2-3 days, and the body weight of the mice was monitored regularly.

[4] = system: collagen-induced arthritis (CIA) mouse model; experiment: Prophylactic collagen-induced arthritis (CIA) study; type: in vivo, male DBA/1 mice
Description: The prophylactic effect of Compound A on CIA model in male DBA/1 mice^57 following intraperitoneal (ip) administration, treatment starting 1 hour prior to the last immunization was studied. A study comparing naïve mice (healthy, non-CIA, non-treated), vehicle-treated mice (CIA with DMSO, ip) and CIA mice treated daily with Compound A (7.5 mg/kg, ip) or MTX (0.3 mg/kg, ip) was performed. CIA developed rapidly in mice immunized with CII. In the prophylactic study, a 100% incidence of CIA was observed by day 29 in CII-immunized mice, with maximum AI of 8.55 observed at 41 days post immunization. The AI and incidence of all groups increased in a time-dependent mode from day 25 to day 41.
Separate prophylactic and therapeutic efficacy studies of COMPOUND A were performed. Methotrexate (MTX) (Jiangsu Hengrui Medicine Co, #11041411), Enbrel (Boehringer Ingelheim Pharma KG, # F39487), and vehicle (DMSO 100%, Sigma Aldrich # D2650) were administered to all groups via intraperitoneal injection once daily at a dose volume of 2 mL/kg. Observations for morbidity, mortality, injury, and the availability of food and water were conducted twice daily for all animals. Clinical observations were conducted daily during the study. Body weights were measured and recorded prior to randomization and then once daily during the study. Food consumption was measured and recorded daily. Biopsies for mid-term histology analysis were obtained on Day 13 in the prophylactic study. Necropsy examinations were performed at study termination; plasma samples were collected, organ weights were recorded
as §2
CIA Assessment and Treatment. CIA was assessed in mice by two blinded observers to measure paw swelling with a capacity measurement method on Day 0, Day 20, Day 22, Day 25, Day 27, Day 29, Day 32, Day 34, Day 36, Day 39 and Day 41 after the first injection. The occurrence of arthritis was observed by scoring all paws for severity of erythema and swelling, using a clinical score ranging from 0 (no swelling) to 4 (severe swelling and erythema). The physical condition of the animals was observed daily. Scores and overall evaluation of the histology group arms were performed in the same way as the main groups. However, the values measured were not included in the mean value calculations of the main groups. The YLS-7B Foot Volume Measuring Instrument (Huaibei China Bio Equipment) was used to measure the foot volume of mice. The occurrence of arthritis was observed by scoring all paws for severity of erythema and swelling, using a clinical score ranging from 0 (no swelling) to 4 (severe swelling and erythema), i.e. yielding maximum arthritic index (AI) score 16 (46).
Measurement of the histopathology and clinical observations. At the end of the studies, one hind foot of each mouse was collected for histopathology. The foot including the ankle was fixed in 10% neutral formalin. The ankle joints were decalcified, dehydrated, embedded in paraffin, sectioned and stained with routine hematoxylin-eosin. The sections were studied using light microscopy (10×10 and 20×10 magnifications). Arthritis damage (histological damage score) was evaluated and scored by an investigator blinded for the treatment regimen. […]

[5] = hind paw, Compound A 7.5 mg/kg, MTX 0.3 mg/kg

SMILES: CCCCCCCCc1ccc(OCC(=O)c2nc(C(=O)OC)cs2)cc1 [Compound A, Methyl 2-(2-(4-octylphenoxy)acetyl)thiazole-4-carboxylate]
- plasma PGE2 level ([1]; prophylactic CIA study, Compound A 7.5 mg/kg, MTX 0.3 mg/kg, vehicle 223.4±107, mean ± SD): 139.8 ± 92 ng/mL
- reduction of plasma PGE2 levels ([1]; prophylactic mode, vs vehicle): about 40%
- plasma PGE2 level ([2]; therapeutic CIA study, Compound A 30 mg/kg, Enbrel 25 mg/kg, vehicle 231.1±110, mean ± SD): 139 ± 55 ng/mL
- reduction of plasma PGE2 levels ([2]; therapeutic mode, vs vehicle): about 40%
- tumor volume as % of the control tumors ([3]; 30 mg/kg bw ip daily for 7 days, then every second day for 14 more days, end of the study): 36%
- tolerability (in words) ([3]; 30 mg/kg ip, long-term treatment): well tolerated with no overt adverse effects
- body weight ([3]; 30 mg/kg ip, Day 5): 24 ± 3 g
- body weight ([3]; 30 mg/kg ip, Day 19): 27 ± 3 g
- maximal tumor diameter ([3]; 30 mg/kg ip, Day 19): 10.5 mm
- effect on tumor growth (in words) ([3]; 30 mg/kg ip, FIG. 1): strong inhibitory effect on tumor growth
- tumor volume ([3]; 30 mg/kg ip, end of the study (Day 19), control 759±401): 265±138 mm^3
- arthritic index (AI) in comparison to the CIA control group (in words) ([4]; Days 32 to 41, Compound A 7.5 mg/kg ip daily, MTX 0.3 mg/kg ip daily): significantly reduced
- articular cavity and peripheral tissue inflammatory cell infiltration, histopathology vs vehicle (in words) [4, 5]: reduced
- capillary and synovial hyperplasia, histopathology vs vehicle (in words) [4, 5]: reduced
- cartilage damage, histopathology vs vehicle (in words) [4, 5]: no significant effect
